Measured values taken from patent publication US4681970A, “Bicyclo-substituted phenylacetonitrile derivatives” (G. D. Searle & Co., priority 1986, dated 1987).
Structures can show the parent of a compound that is named as a salt.

Assays:
[1] = target: T1, Isolated thoracic aortic rings from the male SHR (Rattus norvegicus, UniProt P22002); conditions: reference drugs, potassium depolarized vascular smooth muscle; cited from earlier work
[2] = target: T1, Isolated thoracic aortic rings from the male SHR; assay: Calcium antagonism in vascular smooth muscle (isolated thoracic aortic rings from male SHR); assay type: cell-based; conditions: read-out: pA2 Ca^++ Antagonism (converted)
Description: Isolated thoracic aortic rings from the male SHR were utilized in this test procedure.
The excised aortic ring was mounted in a tissue bath containing modified Kreb's solution. After depolarization of the tissue with potassium chloride (100 mM), calcium in cumulative concentrations of 1×10^-3 M, 3.2×10^-3 M, and 1×10^-2 M was injected into the bath to produce vascular smooth muscle contraction. The developed tension (in grams) was measured and control dose-response values obtained. After one hour of incubation with a test compound at 1×10^-6 M concentration, the same doses of calcium ions were repeated. The log dose-response curves of the control and after treatment were analyzed by linear regression. The pA2 value was calculated as a measure of calcium antagonism of the test compound. See Van Rossum, J. M., Arch. Int. Pharmacodyn, 143, 299-330, 1963.
Calcium ions play an essential role in induction and maintenance of vascular smooth muscle contractility. In potassium depolarized vascular smooth muscle, calcium antagonists may block the entry of calcium ions into the cell or act by other mechanisms to inhibit the contractions induced by calcium ions. The inhibition of calcium ion--induced contraction of vascular smooth muscle is used to test compounds for vascular calcium antagonism. Cardiovascular diseases such as arrhythmias, angina-pectoris, hypertension, and peripheral vascular disease may be causally related to abnormalities in cellular handling of calcium ions.

[3] = system: spontaneously hypertensive rats (SHR); assay: Antihypertensive activity in unanesthetized spontaneously hypertensive rats (SHR); assay type: in vivo, rat; conditions: for duration of antihypertensive effect: oral
Description: The test procedures employed to measure these activities are described below.
Male, unanesthetized spontaneously hypertensive rats (SHR), 11 to 16 weeks old were used in this test procedure. […]
Initial mean arterial blood pressure was measured directly via a previously implanted arterial catheter immediately before administration of the test compound. Blood pressure readings were made at hourly intervals, 24 hours per day, for 3 days following oral administration of the test compound and at 5, 10, and 15 minutes following intravenous administration. […] Statistical comparisons were made using the analysis of variance test with two sided probability calculations.

[4] = system: spontaneously hypertensive rats (SHR); conditions: clinically useful reference agents; cited from earlier work
[5] = system: anesthetized beagle dogs; assay: Antihypertensive effect in anesthetized beagle dogs, i.v.; assay type: in vivo, beagle dog; conditions: for maximum hypotensive effect: compounds of the invention, verapamil and diltiazem compared
[6] = in vivo
[7] = compared with verapamil hydrochloride; cited from earlier work
[8] = system: atrial-ventricular conduction; conditions: compared with verapamil or diltiazem
[9] = SHR, 10 mg/kg/day for three days
[10] = conscious SHR, 50 mg/kg/day for three days
[11] = ratio of the dose required to slow or block atrial-ventricular conduction to the dose required to lower arterial pressure by 20 mmHg
[12] = ratio of the dose to decrease heart rate to the dose to lower arterial pressure

T1 sequence (P22002 whole entry): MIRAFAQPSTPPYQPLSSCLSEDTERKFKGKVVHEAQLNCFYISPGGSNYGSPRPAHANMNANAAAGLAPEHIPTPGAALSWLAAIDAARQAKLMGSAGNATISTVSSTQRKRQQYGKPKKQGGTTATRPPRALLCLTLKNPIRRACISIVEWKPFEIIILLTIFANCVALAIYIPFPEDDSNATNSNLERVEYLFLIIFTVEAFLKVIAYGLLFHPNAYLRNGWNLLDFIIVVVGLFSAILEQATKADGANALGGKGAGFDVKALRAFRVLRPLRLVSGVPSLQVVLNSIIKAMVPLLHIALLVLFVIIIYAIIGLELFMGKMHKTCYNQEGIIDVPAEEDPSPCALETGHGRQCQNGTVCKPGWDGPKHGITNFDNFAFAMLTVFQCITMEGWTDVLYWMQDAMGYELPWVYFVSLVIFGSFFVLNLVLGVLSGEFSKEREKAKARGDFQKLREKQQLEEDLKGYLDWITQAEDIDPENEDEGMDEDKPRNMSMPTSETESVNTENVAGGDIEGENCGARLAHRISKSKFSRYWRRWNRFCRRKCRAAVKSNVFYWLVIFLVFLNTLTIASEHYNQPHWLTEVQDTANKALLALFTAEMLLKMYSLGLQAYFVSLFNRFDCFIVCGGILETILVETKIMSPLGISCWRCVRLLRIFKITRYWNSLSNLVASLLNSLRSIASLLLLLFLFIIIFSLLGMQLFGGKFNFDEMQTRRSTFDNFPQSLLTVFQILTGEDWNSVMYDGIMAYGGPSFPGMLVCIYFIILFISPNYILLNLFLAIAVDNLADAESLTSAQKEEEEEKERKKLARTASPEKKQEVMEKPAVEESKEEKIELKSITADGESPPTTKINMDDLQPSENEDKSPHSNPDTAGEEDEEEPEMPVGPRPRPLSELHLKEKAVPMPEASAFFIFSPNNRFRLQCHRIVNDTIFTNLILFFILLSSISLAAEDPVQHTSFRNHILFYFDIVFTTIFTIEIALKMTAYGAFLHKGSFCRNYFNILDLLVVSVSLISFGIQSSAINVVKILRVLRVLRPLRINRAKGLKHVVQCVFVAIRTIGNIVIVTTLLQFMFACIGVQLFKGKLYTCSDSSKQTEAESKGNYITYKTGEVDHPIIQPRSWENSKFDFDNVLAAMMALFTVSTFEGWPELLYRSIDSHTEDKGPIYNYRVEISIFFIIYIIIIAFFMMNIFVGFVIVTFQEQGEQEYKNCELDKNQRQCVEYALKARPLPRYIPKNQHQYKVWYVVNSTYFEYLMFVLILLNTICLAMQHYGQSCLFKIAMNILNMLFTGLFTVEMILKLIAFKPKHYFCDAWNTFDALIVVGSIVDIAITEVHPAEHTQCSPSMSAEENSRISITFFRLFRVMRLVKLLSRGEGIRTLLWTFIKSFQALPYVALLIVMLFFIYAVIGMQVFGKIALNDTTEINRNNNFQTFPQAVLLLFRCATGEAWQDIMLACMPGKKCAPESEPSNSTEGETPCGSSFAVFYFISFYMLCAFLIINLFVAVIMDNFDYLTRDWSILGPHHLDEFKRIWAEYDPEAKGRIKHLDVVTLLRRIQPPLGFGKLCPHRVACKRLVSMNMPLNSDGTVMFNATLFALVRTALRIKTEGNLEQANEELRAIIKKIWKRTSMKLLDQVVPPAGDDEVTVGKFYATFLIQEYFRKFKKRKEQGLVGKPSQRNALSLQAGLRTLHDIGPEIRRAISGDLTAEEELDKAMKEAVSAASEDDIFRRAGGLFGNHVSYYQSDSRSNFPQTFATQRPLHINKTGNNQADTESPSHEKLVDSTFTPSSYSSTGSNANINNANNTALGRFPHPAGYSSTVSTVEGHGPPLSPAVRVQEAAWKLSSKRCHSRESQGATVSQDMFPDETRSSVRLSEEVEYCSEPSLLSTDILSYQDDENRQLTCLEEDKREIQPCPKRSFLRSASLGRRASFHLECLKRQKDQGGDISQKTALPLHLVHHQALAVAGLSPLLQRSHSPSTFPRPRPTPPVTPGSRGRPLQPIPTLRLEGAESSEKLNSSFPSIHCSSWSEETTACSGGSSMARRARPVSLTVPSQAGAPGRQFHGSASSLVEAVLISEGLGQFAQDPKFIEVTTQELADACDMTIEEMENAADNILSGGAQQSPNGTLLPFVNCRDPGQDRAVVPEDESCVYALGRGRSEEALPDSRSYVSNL
T1 sequence (P54290 25-944 partner limits assumed): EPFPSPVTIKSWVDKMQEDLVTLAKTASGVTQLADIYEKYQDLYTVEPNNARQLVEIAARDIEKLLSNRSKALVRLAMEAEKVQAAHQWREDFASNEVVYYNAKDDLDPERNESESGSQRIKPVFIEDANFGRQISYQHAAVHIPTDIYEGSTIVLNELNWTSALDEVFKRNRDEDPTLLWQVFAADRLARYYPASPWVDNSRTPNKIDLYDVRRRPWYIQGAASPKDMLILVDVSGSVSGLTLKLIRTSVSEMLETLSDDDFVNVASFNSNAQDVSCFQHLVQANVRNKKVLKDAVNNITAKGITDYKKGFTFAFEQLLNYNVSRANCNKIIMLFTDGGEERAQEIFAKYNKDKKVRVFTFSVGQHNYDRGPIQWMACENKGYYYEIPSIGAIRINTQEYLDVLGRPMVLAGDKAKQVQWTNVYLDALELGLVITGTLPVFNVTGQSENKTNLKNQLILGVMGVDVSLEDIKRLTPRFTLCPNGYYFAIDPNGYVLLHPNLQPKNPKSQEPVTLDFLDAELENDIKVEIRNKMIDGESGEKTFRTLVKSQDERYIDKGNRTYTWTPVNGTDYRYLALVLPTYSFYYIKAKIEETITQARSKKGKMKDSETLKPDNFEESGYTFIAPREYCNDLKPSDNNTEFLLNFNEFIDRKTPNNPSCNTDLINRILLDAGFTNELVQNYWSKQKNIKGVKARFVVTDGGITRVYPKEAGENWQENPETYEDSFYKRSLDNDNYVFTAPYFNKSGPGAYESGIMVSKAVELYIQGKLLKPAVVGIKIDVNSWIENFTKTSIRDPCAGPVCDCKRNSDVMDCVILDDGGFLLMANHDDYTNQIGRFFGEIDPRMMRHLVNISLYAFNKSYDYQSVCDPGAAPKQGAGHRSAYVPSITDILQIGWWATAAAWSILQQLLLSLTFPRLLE
T1 sequence (P54290 945-1091 partner limits assumed): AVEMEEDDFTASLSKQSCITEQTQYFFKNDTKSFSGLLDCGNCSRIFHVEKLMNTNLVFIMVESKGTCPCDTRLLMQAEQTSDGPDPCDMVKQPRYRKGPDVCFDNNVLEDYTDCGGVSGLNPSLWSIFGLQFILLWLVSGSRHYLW

In the case of COC(=O)C1=C(C)NC(C)=C(C(=O)OC)C1c1ccccc1[N+](=O)[O-] [nifedipine], the “active in vascular calcium antagonism test” value [1] is given as “active”.
In the case of COc1ccc2c(c1)CC(N(C)CCCC(C#N)(c1ccc(OC)c(OC)c1)C(C)C)CC2.O=C(O)CC(O)(CC(=O)O)C(=O)O (stereo not drawn) [Example 12, 3,4-dimethoxy-α-(1-methylethyl)-α-[3-[N-methyl-N-(1,2,3,4-tetrahydro-7-methoxy-2-naphthalenyl)amino]propyl]phenylacetonitrile, citrate (1:1)], the Kb [2] is reported as 39.8 nM and the “SHR -mmHg intravenous (mg/kg)” value ([3]; 1.0 mg/kg) is reported as -20 mmHg.
For NNc1nncc2ccccc12 [Apresoline], the “active in the hypertensive rat assay” value [4] is listed as “active”.
With COc1ccc(C(C#N)(CCCN(C)C2CCc3c(cccc3OC)C2)C(C)C)cc1OC.O=C(O)CC(O)(CC(=O)O)C(=O)O (stereo not drawn) [Example 11, 3,4-dimethoxy-α-(1-methylethyl)-α-[3-[N-methyl-N-(1,2,3,4-tetrahydro-5-methoxy-2-naphthalenyl)amino]propyl]phenylacetonitrile, citrate (1:1)] the Kb [2] was 50.1 nM and the “SHR -mmHg intravenous (mg/kg)” value ([3]; 1.0 mg/kg) was -29 mmHg.
For COc1ccc(CCN(C)CCCC(C#N)(c2ccc(OC)c(OC)c2)C(C)C)cc1OC (stereo not drawn) [verapamil, α[3-[[2-(3,4-dimethoxyphenyl)ethyl]methylamino]propyl]-3,4-dimethoxy-α-(1-methylethyl)hydrochloride, reference compound], the maximum hypotensive effect [5] was “approximately the same maximum hypotensive effect”, the “duration of antihypertensive effect” value [3, 9] was 6 h and the “duration of antihypertensive effect” value [3, 10] was 14 h. The “SHR -mmHg intravenous (mg/kg)” value ([3]; 0.3 mg/kg) was -30 mmHg.
In the case of COc1ccc([C@@H]2Sc3ccccc3N(CCN(C)C)C(=O)[C@@H]2OC(C)=O)cc1 [diltiazem, reference compound], the “active in vascular calcium antagonism test” value [1] is listed as “active”, the selectivity ratio [6, 11] is listed as 0.53 and the selectivity ratio [6, 12] is listed as 0.53. For the same compound, the maximum hypotensive effect [5] was “approximately the same maximum hypotensive effect”.
In the case of Clc1cccc(Cl)c1N=C1NCCN1 [Clonidine], the “active in the hypertensive rat assay” value [4] is given as “active”.
In the case of C[C@](N)(Cc1ccc(O)c(O)c1)C(=O)O [Aldomet], the “active in the hypertensive rat assay” value [4] is given as “active”.
In the case of CCCCCCCCCCCCC(C#N)(CCCN(C)CCc1cccc(OC)c1)c1cccc(OC)c1 (stereo not drawn) [Anipamil, 2-(3-methoxyphenyl)-2[3-[N-[2-(3-methoxyphenyl)ethyl]methylamino]propyl]tetradecanenitrile], the “calcium ion antagonist activity” value [7] is given as “calcium ion antagonist activity analogous to verapamil hydrochloride”.
For C[C@H](CS)C(=O)N1CCC[C@H]1C(=O)O [Captopril], the “active in the hypertensive rat assay” value [4] is given as “active”.
Compound COc1ccc(C(C#N)(CCCN(C)C2CCc3ccccc3C2)C(C)C)cc1OC.O=C(O)CC(O)(CC(=O)O)C(=O)O (stereo not drawn) [Example 8, 3,4-dimethoxy-α-(1-methylethyl)-α-[3-[N-methyl-N-(1,2,3,4-tetrahydro-2-naphthalenyl)amino]propyl]phenylacetonitrile, citrate (1:1)] has a selectivity ratio [6, 11] of 4, a selectivity ratio [6, 12] of 3.1 and a Kb [2] of 50.1 nM. For the same compound, the “therapeutic ratio for atrial-ventricular block and bradycardia” value [8] was “more favorable therapeutic ratio for atrial-ventricular block and bradycardia than verapamil or diltiazem”, the “slope of the dose-blood pressure response curve” value ([5]; compared to verapamil and diltiazem) was “not as steep” and the “duration of antihypertensive effect” value [3, 9] was “approximately 12 hours”. The “duration of antihypertensive effect” value [3, 10] was over 24 h and the “SHR -mmHg intravenous (mg/kg)” value ([3]; 0.1 mg/kg) was -30 mmHg.
With COc1ccc(C(C#N)(CCCN(C)C2CCc3cc(OC)c(OC)cc3C2)C(C)C)cc1OC.O=C(O)CC(O)(CC(=O)O)C(=O)O (stereo not drawn) [Example 9, 3,4-dimethoxy-α-(1-methylethyl)-α-[3-[N-methyl-N-(1,2,3,4-tetrahydro-6,7-dimethoxy-2-naphthalenyl)amino]propyl]phenylacetonitrile, citrate (1:1)] the Kb [2] was 126 nM and the “SHR -mmHg intravenous (mg/kg)” value ([3]; 3.0 mg/kg) was -30 mmHg.
For COc1ccc2c(c1)CCC(N(C)CCCC(C#N)(c1ccc(OC)c(OC)c1)C(C)C)C2.O=C(O)CC(O)(CC(=O)O)C(=O)O (stereo not drawn) [Example 10, 3,4-dimethoxy-α-(1-methylethyl)-α-[3-[N-methyl-N-(1,2,3,4-tetrahydro-6-methoxy-2-naphthalenyl)amino]propyl]phenylacetonitrile, citrate (1:1)], the Kb [2] was 25.1 nM and the “SHR -mmHg intravenous (mg/kg)” value ([3]; 3.0 mg/kg) was -24 mmHg.
